This passage reports IC50 and Kd results from US11453683B1, “KRas G12D inhibitors” (Mirati Therapeutics, Inc., priority 2019, dated 2022).

Bounds are passed on as bounds.

Assay [1] deals with T1, KRas G12D (Homo sapiens (Human), UniProt P01116, G12D). Nature of the assay: KRas G12D Binding Assay (TR-FRET displacement). The following applies: TR-FRET displacement of Cy5 labelled tracer, GDP-loaded KRAS G12D, 60 minute incubation at 22° C. On the procedure:
After a 60 minute incubation at 22° C., the reaction was measured using a PerkinElmer EnVision multimode plate reader via TR-FRET dual wavelength detection, and the percent of control (POC) calculated using a ratiometric emission factor. […] The POC values were fit to a 4-parameter logistic curve and the IC50 value was determined as the concentration where the curve crosses 50 POC.
Background: Time-resolved FRET reads energy transfer from a long-lived donor to a nearby acceptor.
Target sequence in this assay (P01116 other isoform, or with tags, fused parts or gaps G12D): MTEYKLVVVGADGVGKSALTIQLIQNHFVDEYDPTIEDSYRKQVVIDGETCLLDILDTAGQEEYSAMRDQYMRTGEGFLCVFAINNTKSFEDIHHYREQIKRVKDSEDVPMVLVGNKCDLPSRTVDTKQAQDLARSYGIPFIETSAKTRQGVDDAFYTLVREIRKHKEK

For assay [2], the target named is T1, KRas G12D. Nature of the assay: KRas G12D Surface Plasmon Resonance (SPR) Binding Assay. The following applies: Biacore T200, immobilized biotinylated KRAS protein, 1:1 binding model. On the procedure:
Briefly, 1 L of 1.05× HBS-Mg buffer (262.5 mM Bioultra Hepes, pH 7.5, 157.5 mM NaCl, 105 mM MgCl2, 0.525 mM TCEP, 0.0305% Brij-35) was prepared and filter sterilized using a 0.22 μm bottle top filter. Approximately 50 mL of 1.05× HBS-Mg buffer was removed and saved for future dilutions. A 50 mL aliquot of DMSO (Sigma Aldrich DMSO Lot. #SHBK2079) was added and continued to stir for 10 minutes, creating the final 1.0× HBS-Mg buffer (250 mM Bioultra Hepes pH 7.5, 150 mM NaCl, 100 mM MgCl2, 0.5mM TCEP, 0.03% Brij-35).
Biacore T200 instrument was primed using 1.0× HBS-Mg buffer before docking a GE Streptavidin (SA) chip and then primed two additional times prior to beginning the immobilization step. All immobilized protein mixtures were created using 3-5mg/mL Biotinylated Avidin-tagged KRAS protein using the following immobilization settings: SA chip type, 1 flow cells per cycle, 720 second contact time, and 5 ul/min flow rate. Normalization of the detector was also performed during the immobilization step using the GE Biallormalize solution.
All compounds were diluted to 10 mM in 100% DMSO prior to being diluted 20× in 1.05× buffer. […] Data evaluation was performed using the Biacore T200 Evaluation software and data fit to 1:1 binding model.
Target sequence in this assay (P01116-2 other isoform, or with tags, fused parts or gaps G12D): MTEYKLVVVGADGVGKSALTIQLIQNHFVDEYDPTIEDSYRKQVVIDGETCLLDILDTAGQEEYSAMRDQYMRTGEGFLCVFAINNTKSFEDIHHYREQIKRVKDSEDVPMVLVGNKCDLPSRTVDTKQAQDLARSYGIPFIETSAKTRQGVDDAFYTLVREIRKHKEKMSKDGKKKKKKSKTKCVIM

For assay [3], the system named is KRas G12D-mediated phosphorylation of ERK. Nature of the assay: Inhibition of KRas G12D-mediated phosphorylation of ERK in AGS cells. The assay is classed as cell-based. The following applies: Homo sapiens; AGS cells expressing G12D, 3 hours, phospho-ERK normalized to GAPDH. In short, it runs like this:
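In-cell Western: p-ERK Thr202/Tyr204 signal over GAPDH, as % of DMSO control, with IC50 from a 4-parameter curve. AGS cells seeded 40,000/well for 12-14 h, exposed to compound 3 h at 0.5% DMSO final, then formaldehyde-fixed and methanol-permeabilized.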

Turning to `OC[C@@H](O)COc1nc(N2C[C@H]3CC[C@@H](C2)N3)c2cnc(-c3cccc4cccc(Cl)c34)c(F)c2n1` [Example 56, (R)-3-((4-((1R,5S)-3,8-diazabicyclo[3.2.1]octan-3-yl)-7-(8-chloronaphthalen-1-yl)-8-fluoropyrido[4,3-d]pyrimidin-2-yl)oxy)propane-1,2-diol], the IC50 – broadly, the midpoint of a concentration-inhibition curve – on KRas G12D [1] was determined as 5.92 µM. Also, the equilibrium dissociation constant (Kd) (commonly the free concentration of one partner at which half of the binding sites on the other are occupied at equilibrium, for simple one-to-one binding) at KRas G12D [2] amounted to 5.17 µM.

In the case of `Cn1c(CCOc2nc(N3C[C@H]4CC[C@@H](C3)N4)c3cnc(-c4cc(O)cc5ccccc45)c(F)c3n2)nc2ccccc21` [Example 30, 4-(4-((1R,5S)-3,8-diazabicyclo[3.2.1]octan-3-yl)-8-fluoro-2-(2-(1-methyl-1H-benzo[d]imidazol-2-yl)ethoxy)pyrido[4,3-d]pyrimidin-7-yl)naphthalen-2-ol], the values for the IC50 (on KRas G12D [1]; in assay [3]) were 0.418 µM and 9.6 µM, respectively. In addition, the Kd on KRas G12D [2] is 0.18 µM.

Consider `[O-][N+]12CCCC1(COc1nc(N3CC4CCC(C3)N4)c3cnc(-c4cccc5cccc(Cl)c45)c(F)c3n1)CCC2` [Example 60, 7a-(((4-((1R,5S)-3,8-diazabicyclo[3.2.1]octan-3-yl)-7-(8-chloronaphthalen-1-yl)-8-fluoropyrido[4,3-d]pyrimidin-2-yl)oxy)methyl)hexahydropyrrolizine 4(1H)-oxide], for which the IC50 on KRas G12D [1] was 1.66 µM; in assay [3], > 16.7 µM. Also, the dissociation constant Kd at KRas G12D [2] is > 1000 µM.

Take `Oc1cc(-c2ncc3c(N4C[C@H]5CC[C@@H](C4)N5)nc(OCCc4ccccc4F)nc3c2F)c2ccccc2c1` [Example 67, 4-(4-((1R,5S)-3,8-diazabicyclo[3.2.1]octan-3-yl)-8-fluoro-2-(2-fluorophenethoxy)pyrido[4,3-d]pyrimidin-7-yl)naphthalen-2-ol]: the IC50 at KRas G12D [1] came to 1.25 µM. Besides, the dissociation constant (Kd) on KRas G12D [2] is 1.15 µM.

Take `OCC(COc1nc(N2C[C@H]3CC[C@@H](C2)N3)c2cnc(-c3cccc4cccc(Cl)c34)c(F)c2n1)c1cccnc1` (stereo partly drawn) [Example 59, 3-((4-((1R,5S)-3,8-diazabicyclo[3.2.1]octan-3-yl)-7-(8-chloronaphthalen-1-yl)-8-fluoropyrido[4,3-d]pyrimidin-2-yl)oxy)-2-(pyridin-3-yl)propan-1-ol]: at KRas G12D [1], the IC50 was determined as 0.946 µM. The dissociation constant (Kd) at KRas G12D [2] was 1.12 µM.

At KRas G12D [1], `Oc1cc(-c2ncc3c(N4C[C@H]5CC[C@@H](C4)N5)nc(OCCc4ncccn4)nc3c2F)c2ccccc2c1` [Example 7, 4-(4-((1R,5S)-3,8-diazabicyclo[3.2.1]octan-3-yl)-8-fluoro-2-(2-(pyrimidin-2-yl)ethoxy)pyrido[4,3-d]pyrimidin-7-yl)naphthalen-2-ol] registered an IC50 of 1.87 µM. The dissociation constant (Kd) on KRas G12D [2] amounted to 0.464 µM.

As to `OCC(O)CCOc1nc(N2C[C@H]3CC[C@@H](C2)N3)c2cnc(-c3cccc4cccc(Cl)c34)c(F)c2n1` (stereo partly drawn) [Example 57, 4-((4-((1R,5S)-3,8-diazabicyclo[3.2.1]octan-3-yl)-7-(8-chloronaphthalen-1-yl)-8-fluoropyrido[4,3-d]pyrimidin-2-yl)oxy)butane-1,2-diol], the IC50 on KRas G12D [1] came out at 7.29 µM. The Kd at KRas G12D [2] is > 1000 µM.

With `COC(=O)C12CCC(CN(c3nc(OC[C@@H]4CCCN4C)nc4c(F)c(-c5cc(O)cc6ccccc56)ncc34)C1)N2` (stereo partly drawn) [Example 158, methyl 3-(8-fluoro-7-(3-hydroxynaphthalen-1-yl)-2-(((S)-1-methylpyrrolidin-2-yl)methoxy)pyrido[4,3-d]pyrimidin-4-yl)-3,8-diazabicyclo[3.2.1]octane-1-carboxylate bis(2,2,2-trifluoroacetate)], the half-maximal inhibitory concentration (IC50) at KRas G12D [1] was found to be 0.0737 µM; in assay [3] it was 4.22 µM. Besides, on KRas G12D [2], the equilibrium dissociation constant (Kd) stood at 0.33 µM.

On to `CC(C)N1CCC[C@H]1COc1nc(N2C[C@H]3C[C@@H](O)[C@@H](C2)N3)c2cnc(-c3cccc4cccc(Cl)c34)c(F)c2n1` [Example 153, (1R,5R,6R)-3-(7-(8-chloronaphthalen-1-yl)-8-fluoro-2-(((S)-1-isopropylpyrrolidin-2-yl)methoxy)pyrido[4,3-d]pyrimidin-4-yl)-3,8-diazabicyclo[3.2.1]octan-6-ol], for which the IC50 at KRas G12D [1] was determined as 0.0508 µM; in assay [3], 2.37 µM. This compound displayed a dissociation constant (Kd) on KRas G12D [2] of 0.0705 µM.

Take `CC(C)c1cccc2cc(O)cc(-c3ncc4c(N5CC6CCC(C5)N6)nc(OC[C@@]56CCCN5C[C@H](F)C6)nc4c3F)c12` (racemic) [Example 364, 4-(4-((1R,5S)-3,8-diazabicyclo[3.2.1]octan-3-yl)-8-fluoro-2-((2-fluorotetrahydro-1H-pyrrolizin-7a(5H)-yl)methoxy)pyrido[4,3-d]pyrimidin-7-yl)-5-isopropylnaphthalen-2-ol (racemic, trans)]: the figures for the IC50 (on KRas G12D [1]; in assay [3]) were 0.0023 µM and 0.322 µM, respectively.

On to `Oc1cc(-c2ncc3c(N4C[C@H]5CC[C@@H](C4)N5)nc(OCCCN4C[C@@H]5C[C@H]4CO5)nc3c2F)c2ccccc2c1` [Example 24, 4-(2-(3-((1S,4S)-2-oxa-5-azabicyclo[2.2.1]heptan-5-yl)propoxy)-4-((1R,5S)-3,8-diazabicyclo[3.2.1]octan-3-yl)-8-fluoropyrido[4,3-d]pyrimidin-7-yl)naphthalen-2-ol], for which the values for the IC50 (at KRas G12D [1]; in assay [3]) were 0.0079 µM and 2.89 µM, respectively. In addition, on KRas G12D [2], the Kd turned out to be 0.005 µM.

For the compound `O[C@@H]1C[C@@H]2CN(c3nc(OCC45CCCN4CCC5)nc4c(F)c(-c5cccc6cccc(Cl)c56)ncc34)C[C@H]1N2` [Example 49, (1R,5R,6R)-3-(7-(8-chloronaphthalen-1-yl)-8-fluoro-2-((tetrahydro-1H-pyrrolizin-7a(5H)-yl)methoxy)pyrido[4,3-d]pyrimidin-4-yl)-3,8-diazabicyclo[3.2.1]octan-6-ol], the 50% inhibitory concentration (IC50) turned out to be 0.0059 µM on KRas G12D [1] and 2.12 µM in assay [3]. Moreover, binding on KRas G12D [2] was put at a Kd of 0.0004 µM.

Take `Fc1c(-c2cncc3cccc(Cl)c23)ncc2c(N3C[C@H]4CC[C@@H](C3)N4)nc(OCC34CCCN3CCC4)nc12` [Example 33, 4-((1R,5S)-3,8-diazabicyclo[3.2.1]octan-3-yl)-7-(5-chloroisoquinolin-4-yl)-8-fluoro-2-((tetrahydro-1H-pyrrolizin-7a(5H)-yl)methoxy)pyrido[4,3-d]pyrimidine bis(2,2,2-trifluoroacetate)]: the 50% inhibitory concentration (IC50) on KRas G12D [1] was found to be 0.0211 µM; in assay [3], 2.05 µM. The compound also returned a Kd at KRas G12D [2] of 0.0717 µM.

Turning to `C#Cc1c(F)ccc2cc(O)cc(-c3ncc4c(N5CC6CCC(C5)N6)nc(OC[C@]56CCCN5[C@@H](COC(=O)N(C)C)CC6)nc4c3F)c12` [Example 440, ((3R,7aR)-7a-(((4-((1R,5S)-3,8-diazabicyclo[3.2.1]octan-3-yl)-7-(8-ethynyl-7-fluoro-3-hydroxynaphthalen-1-yl)-8-fluoropyrido[4,3-d]pyrimidin-2-yl)oxy)methyl)hexahydro-1H-pyrrolizin-3-yl)methyl dimethyl carbamate], the concentration for half-maximal inhibition (IC50) on KRas G12D [1] was found to be 0.0008 µM; in assay [3], 0.0084 µM.

On to `CN1CCC[C@H]1COc1nc(N2C[C@H]3CC[C@@H](C2)N3)c2cnc(-c3cccc4cccc(CCC#N)c34)c(F)c2n1` [Example 117, 3-(8-(4-((1R,5S)-3,8-diazabicyclo[3.2.1]octan-3-yl)-8-fluoro-2-(((S)-1-methylpyrrolidin-2-yl)methoxy)pyrido[4,3-d]pyrimidin-7-yl)naphthalen-1-yl)propanenitrile bis(2,2,2-trifluoroacetate)], for which the concentration for half-maximal inhibition (IC50) on KRas G12D [1] worked out at 0.731 µM. Also, the dissociation constant (Kd) at KRas G12D [2] was found to be 1 µM.

Take `[2H]C#Cc1cccc2cccc(-c3ncc4c(N5C[C@H]6CC[C@@H](C5)N6)nc(OCC56CCCN5CCC6)nc4c3F)c12` [Example 278, 4-((1R,5S)-3,8-diazabicyclo[3.2.1]octan-3-yl)-7-(8-(ethynyl-d)naphthalen-1-yl)-8-fluoro-2-((tetrahydro-1H-pyrrolizin-7a(5H)-yl)methoxy)pyrido[4,3-d]pyrimidine]: the IC50 on KRas G12D [1] came out at 0.0007 µM; in assay [3], 0.104 µM.

As to `Oc1cc(-c2ncc3c(N4CC5CCC(C4)N5)nc(OC[C@@]45CCCN4C[C@H](F)C5)nc3c2F)c2c(F)cccc2c1` (racemic) [Example 366, 4-(4-((1R,5S)-3,8-diazabicyclo[3.2.1]octan-3-yl)-8-fluoro-2-((2-fluorotetrahydro-1H-pyrrolizin-7a(5H)-yl)methoxy)pyrido[4,3-d]pyrimidin-7-yl)-5-fluoronaphthalen-2-ol (racemic, trans)], the values for the IC50 (on KRas G12D [1]; in assay [3]) were 0.0005 µM and 0.007 µM, respectively.
